Source: US6342604B1, “Substitute pyrimidine compounds and the use thereof” (BASF Aktiengesellschaft, priority 1994, dated 2002)
Read-outs that look alike come from different tables or passages of the source.

Target: T1, human D3 receptor (Homo sapiens, UniProt P35462)
T1 construct: host or cells: CCL 1.3 mouse fibroblasts
Experiment: D3 receptor binding assay (125I-iodosulpiride displacement)
Details: for Selectivity Ki D2/Ki D3: ratio of Ki D2 (3H-spiperone) to Ki D3 (125I-sulpiride)
Description: Cloned human D3 receptor-expressing CCL 1.3 mouse fibroblasts obtained from Res. Biochemicals Internat. One Strathmore Rd., Natick, Mass.
After 48 h, the cells were washed with PBS and incubated with 0.05% trypsin-containing PBS for 5 min. Neutralization with medium was then carried out, and the cells were collected by centrifugation at 300 xg. To lyze the cells, the pellet was briefly washed with lysis buffer (5 mM tris-HCl, pH 7.4, with 10% glycerol) and then incubated in a concentration of 10^7 cells/ml of lysis buffer at 4° C. for 30 min. The cells were centrifuged at 200 xg for 10 min and the pellet was stored in liquid nitrogen.
The non-specific binding was determined using 10^−6 M spiperone.
After 60 min, the free and the bound radioligand was separated by filtration through GF/B glass fiber filters (Whatman, England) on a Skatron cell collector (Skatron, Lier, Norway), and the filters were washed with ice-cold tris-HCl buffer, pH 7.4. The radioactivity collected on the filters was quantified using a Packard 2200 CA liquid scintillation counter.
The Ki values were determined by non-linear regression analysis using the LIGAND program.

[1] = cloned human D3 receptor, CCL 1.3 mouse fibroblast membranes, 0.1 nM 125iodosulpiride, read-out: Receptor binding D3 125I-sulpiride Ki

T1 sequence (P35462 whole entry): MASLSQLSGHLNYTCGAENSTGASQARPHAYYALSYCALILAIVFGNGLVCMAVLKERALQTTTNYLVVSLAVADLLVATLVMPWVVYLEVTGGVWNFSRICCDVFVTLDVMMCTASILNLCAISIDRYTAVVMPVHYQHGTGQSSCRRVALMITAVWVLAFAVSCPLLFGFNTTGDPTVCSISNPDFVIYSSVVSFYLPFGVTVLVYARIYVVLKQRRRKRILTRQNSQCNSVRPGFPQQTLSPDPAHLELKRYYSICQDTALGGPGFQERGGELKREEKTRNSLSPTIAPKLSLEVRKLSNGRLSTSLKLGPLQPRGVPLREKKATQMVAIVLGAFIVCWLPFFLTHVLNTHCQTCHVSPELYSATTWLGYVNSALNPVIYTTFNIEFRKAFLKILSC

| Ki [1] | Compound | Ki | Selectivity Ki D2/Ki D3 |
| --- | --- | --- | --- |
| – | Oc1ccnc(SCCCN2CCN(c3cccc(C(F)(F)F)c3)CC2)n1 [Example 12] | 4.2 nM | 85 |
| 2.3 nM | Oc1ccnc(SC/C=C/CN2CCN(c3cccc(C(F)(F)F)c3)CC2)n1 [Example 13] | – | 61 |
| 2.8 nM | CC(C)c1cccc(N2CCN(CCCSc3nccc(O)n3)CC2)c1 [Example 17] | – | 71 |
| – | Oc1ccnc(SCCCN2CC=C(c3cccc(C(F)(F)F)c3)CC2)n1 [Example 19] | 3 nM | 58 |
